GI50 and TGI data for eight molecules are collected here from PubChem BioAssay (NCI).

What all share (experiment): NCI anticancer screen, dose series, 48 h
Assay [1] deals with CCRF-CEM leukemia.
The test system of assay [2] is SK-MEL-5 melanoma.
In assay [3] the test system is CAKI-1 renal.
Assay [4] concerns SN12C renal.
The subject of assay [5] is OVCAR-4 ovarian.
In assay [6] the test system is PC-3 prostate.
Assay [7] deals with HS 578T breast.
Assay [8] relates to SW-620 colon.
Assay [9] deals with KM12 colon.
For assay [10], the system named is OVCAR-8 ovarian.

“And” between values parts separate entries of the source, which are not always exact repeats. Equal entries are not always repeated.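 A five-concentration, 48-hour dose response in 96-well plates underlies each endpoint, interpolated linearly between surrounding concentrations. Abbreviation: GI50, concentration required for 50% inhibition of growth. TGI marks complete inhibition of growth.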 Where only a bound is given, the exact number is not on record here.

For the molecule `CC(C)(C)NC(=O)[C@H]1CC[C@H]2[C@@H]3CC[C@H]4NC(=O)C=C[C@]4(C)[C@H]3CC[C@]12C`, the GI50 in assay [1] was 84.2 µM and > 100 µM; in [2], 43.1 µM and > 100 µM; in assay [3], 77.9 µM and > 100 µM; in assay [4], more than 100 µM; in [5], more than 100 µM; in assay [6], 61 µM and > 100 µM. In addition, the GI50 in assay [7], in [8], in assay [9] and in assay [10] was more than 100 µM throughout. Further, the TGI in assay [1], in [2], in [3], in assay [4], in [5] and in assay [6] was more than 100 µM each time. Moreover, the TGI in assay [7], in [8], in assay [9] and in [10] was more than 100 µM in each case.
As to `NC(=O)CC1(O)C=C(Br)C(=O)C(Br)=C1`, the GI50 in assay [1] was 0.194 µM; in assay [2] it was 12.5 µM; in [3], 0.94 µM; in [4], 9.05 µM; in assay [5], 4.58 µM; in assay [6], 7.65 µM. Besides, the GI50 is 17.8 µM in assay [7], 1.77 µM in assay [8], 13.8 µM in assay [9] and 2.88 µM in assay [10]. For the same molecule, the TGI amounted to 0.434 µM in [1]; 25.6 µM in assay [2]; 2.96 µM in assay [3]; 23.4 µM in [4]; 15.9 µM in [5]; 24.9 µM in assay [6]. The TGI stood at 46 µM in assay [7], 3.47 µM in assay [8], 27.2 µM in [9] and 9.42 µM in [10].
`COc1ccc(Cl)cc1Nc1nc(C(F)(F)F)ccc1C(=O)N/N=C/c1cccnc1`: the GI50 in assay [1] is 0.624 µM; in assay [2], 2.64 µM; in assay [3], 3.84 µM; in [4], 7.78 µM; in assay [5], 0.521 µM; in [6], 3.8 µM. Further, the GI50 is 11.8 µM in [7], 4.07 µM in assay [8], 3.63 µM in assay [9] and 2.91 µM in [10]. Further, the TGI was more than 100 µM in assay [1]; 65.3 µM in assay [2]; more than 100 µM in assay [3]; more than 100 µM in assay [4]; more than 100 µM in assay [5]; more than 100 µM in [6]. Further, the TGI in assay [7], in assay [8], in assay [9] and in assay [10] was more than 100 µM in each case.
With `ClCc1ccc(Cn2cnc3c(Cl)ncnc32)cc1`, the GI50 in assay [1] is 4.64 µM; in [2], 11.7 µM; in assay [3], 2.26 µM; in [4], 8.46 µM; in assay [6] it was 18 µM; in assay [7], 13.6 µM. Also, the GI50 is 7.67 µM in [8], 10.3 µM in assay [9] and 16.5 µM in assay [10]. Further, the TGI was more than 48.8 µM in assay [1]; 35.9 µM in [2]; 8.78 µM in assay [3]; 20.5 µM in assay [4]; more than 25.7 µM in assay [5]; 56.3 µM in assay [6]. The TGI in assay [7] is 29.1 µM; in assay [8], 19.4 µM; in [9] it was 30.2 µM; in [10] it was 44.2 µM.
Turning to `CCOc1ccc2c(c1)CN(Cc1ccc(Cl)cc1)CO2`, the GI50 in [1] is 29.9 µM; in assay [2], 15.2 µM; in [3], 16.3 µM; in assay [4], 25.9 µM; in assay [5], 19.8 µM; in assay [6], 27.9 µM. Also, the GI50 in assay [7] is 18.2 µM; in assay [8], 16.4 µM; in assay [9], 18.3 µM; in assay [10], 18 µM. Moreover, the TGI in assay [1] was 98.5 µM; in assay [2], 28.9 µM; in [3], 43.2 µM; in assay [4] it was more than 100 µM; in assay [5], 50.3 µM; in assay [6], more than 100 µM. Further, the TGI in assay [7] was found to be 53.7 µM; in assay [8] it was 32.1 µM; in assay [9], 35.5 µM; in assay [10] it was 38.3 µM.
Take `COC(=O)C1(C)CC2C(C)(CCC3(C)C4=CC=C5C(=CC(=O)C(O)=C5C)C4(C)CCC23C)CC1O` (centres undefined): the TGI was 0.538 µM in assay [1]; 3.28 µM in assay [2]; 2.27 µM in assay [3]; 3.33 µM in assay [4]; 3.4 µM in assay [5]; 3.12 µM in assay [6]. The TGI in assay [7] is 14.4 µM; in [9], 4.09 µM; in [10] it was 2.38 µM.
For `CCOC(=O)c1c(NC(=O)c2ccccc2)sc2c3c(ccc12)OCN(C)C3`, the GI50 in [1] was 1.97 µM; in [2], 1.74 µM; in assay [3], 1.59 µM; in assay [4] it was 1.63 µM; in assay [5] it was 1.75 µM; in assay [6], 1.53 µM. Moreover, the GI50 in [7] is 1.9 µM; in [8], 1.63 µM; in [9] it was 1.75 µM. Also, the TGI in assay [1] was determined as 5.75 µM; in assay [2] it was 3.14 µM; in [3], 2.99 µM; in assay [4] it was 3.22 µM; in [5], 3.13 µM; in [6], 3 µM. Besides, the TGI in assay [7] was 4.16 µM; in assay [8], 3.32 µM; in assay [9], 3.3 µM.
Take `N#Cc1ccccc1C#C/C=C\C#CC#C/C=C\C#Cc1ccccc1C#N`: the GI50 is 4.95 µM in assay [1]; 10.4 µM in [2]; 20.1 µM in assay [3]; 19.1 µM in [5]; 19.6 µM in assay [6]; 5.38 µM in assay [7]. Besides, the figures for the GI50 in assay [8], in [9] and in assay [10] were 9.1 µM, 16.9 µM and 47.6 µM, respectively. Also, the TGI is more than 100 µM in assay [1]; 27.9 µM in [2]; 73.4 µM in assay [3]; more than 100 µM in assay [5]; more than 100 µM in assay [6]; 78.8 µM in assay [7]. Also, the TGI in assay [8] is more than 100 µM; in assay [9], 38.4 µM; in assay [10], more than 100 µM.
